The values that follow come from ChEMBL document CHEMBL3608278 (J Med Chem, 2015).

Assay [1] concerns the target T1, Potassium voltage-gated channel subfamily A member 3 (Homo sapiens, UniProt P22001). On the set-up: species or system Blood.
Assay [2] addresses T1, Potassium voltage-gated channel subfamily A member 3. Kind of assay: cell-based. The arrangement: species or system Blood.
For assay [3] the target is unchanged. The format is cell-based, CHO-K1.

Bridge positions count the residues as written; N and C are the ends. Peptide text beside a SMILES is read from it.

T1 sequence (P22001 whole entry): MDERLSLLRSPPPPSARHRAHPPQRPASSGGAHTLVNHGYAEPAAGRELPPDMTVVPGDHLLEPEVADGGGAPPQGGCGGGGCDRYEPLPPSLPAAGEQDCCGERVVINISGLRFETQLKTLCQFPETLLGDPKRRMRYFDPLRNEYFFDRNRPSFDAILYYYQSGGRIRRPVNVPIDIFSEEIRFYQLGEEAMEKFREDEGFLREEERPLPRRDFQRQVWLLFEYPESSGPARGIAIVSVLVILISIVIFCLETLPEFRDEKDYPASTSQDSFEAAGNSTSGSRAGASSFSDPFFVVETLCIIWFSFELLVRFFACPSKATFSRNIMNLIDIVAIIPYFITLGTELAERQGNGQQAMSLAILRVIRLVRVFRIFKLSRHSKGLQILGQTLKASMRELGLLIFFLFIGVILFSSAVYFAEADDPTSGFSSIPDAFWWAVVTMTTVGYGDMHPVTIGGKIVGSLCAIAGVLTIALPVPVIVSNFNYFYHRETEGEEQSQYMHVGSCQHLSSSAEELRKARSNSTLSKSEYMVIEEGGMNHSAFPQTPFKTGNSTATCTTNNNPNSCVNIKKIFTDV

As for `CC[C@H](C)[C@@H]1NC(=O)[C@@H](NC(=O)[C@H](CO)NC(=O)[C@@H](N)CCCNC(=N)N)CSSC[C@@H](C(=O)O)NC(=O)[C@H](C)NC(=O)CNC(=O)[C@@H]2CSSC[C@@H]3NC(=O)[C@H](CCC(N)=O)NC(=O)[C@H](Cc4ccccc4)NC(=O)[C@H](C)NC(=O)[C@H]([C@@H](C)O)NC(=O)[C@H](CSSC[C@H](NC(=O)[C@H](Cc4ccccc4)NC(=O)[C@H](CO)NC(=O)[C@H](CC(C)C)NC(=O)[C@H](CCCNC(=N)N)NC(=O)[C@H](Cc4ccc(O)cc4)NC(=O)[C@H](CCCCN)NC(=O)[C@H](CCSC)NC(=O)[C@H](CO)NC(=O)[C@H](Cc4cnc[nH]4)NC(=O)[C@H](CCCCN)NC3=O)C(=O)N[C@@H](CCCNC(=N)N)C(=O)N[C@@H](CCCCN)C(=O)N[C@@H]([C@@H](C)O)C(=O)N2)NC(=O)[C@H](CCCNC(=N)N)NC(=O)[C@H](CO)NC(=O)[C@H](CCCCN)NC(=O)[C@@H]2CCCN2C(=O)[C@H]([C@@H](C)CC)NC(=O)[C@H]([C@@H](C)O)NC(=O)[C@H](CC(=O)O)NC1=O`, the IC50 – broadly, the concentration at which inhibition is half-maximal – was determined as 0.083 nM in assay [1], 0.053 nM in assay [2] and 0.133 nM in assay [3].
Taken in the same sequence, the figures for `CC[C@H](C)[C@@H]1NC(=O)[C@@H](NC(=O)[C@H](CO)NC(=O)[C@@H](N)CCCNC(=N)N)CSSC[C@@H](C(=O)O)NC(=O)[C@H]([C@@H](C)O)NC(=O)CNC(=O)[C@@H]2CSSC[C@@H]3NC(=O)[C@H](CCC(N)=O)NC(=O)[C@H](Cc4ccccc4)NC(=O)[C@H](C)NC(=O)[C@H]([C@@H](C)O)NC(=O)[C@H](CSSC[C@H](NC(=O)[C@H](Cc4cccc5ccccc45)NC(=O)[C@H](CO)NC(=O)[C@H](CC(C)C)NC(=O)[C@H](CCCNC(=N)N)NC(=O)[C@H](Cc4ccc(O)cc4)NC(=O)[C@H](CCCCN)NC(=O)[C@H](CCSC)NC(=O)[C@H](CO)NC(=O)[C@H](Cc4cnc[nH]4)NC(=O)[C@H](CCCCN)NC3=O)C(=O)N[C@@H](CCCNC(=N)N)C(=O)N[C@@H](CCCCN)C(=O)N[C@@H]([C@@H](C)O)C(=O)N2)NC(=O)[C@H](CCCNC(=N)N)NC(=O)[C@H](CO)NC(=O)[C@H](CCCCN)NC(=O)[C@@H]2CCCN2C(=O)[C@H]([C@@H](C)CC)NC(=O)[C@H]([C@@H](C)O)NC(=O)[C@H](CC(=O)O)NC1=O` were 2.84 nM, 1.07 nM and 0.223 nM.
In the same order, the values of `CC[C@H](C)[C@@H]1NC(=O)[C@@H](NC(=O)[C@H](CO)NC(=O)[C@@H](N)CCCNC(=N)N)CSSC[C@@H](C(=O)O)NC(=O)[C@H](CCCNC(=N)N)NC(=O)CNC(=O)[C@@H]2CSSC[C@@H]3NC(=O)[C@H](CCC(N)=O)NC(=O)[C@H](Cc4ccccc4)NC(=O)[C@H](C)NC(=O)[C@H]([C@@H](C)O)NC(=O)[C@H](CSSC[C@H](NC(=O)[C@H](Cc4ccccc4)NC(=O)[C@H](CO)NC(=O)[C@H](CC(C)C)NC(=O)[C@H](CCCNC(=N)N)NC(=O)[C@H](Cc4ccc(O)cc4)NC(=O)[C@H](CCCCN)NC(=O)[C@H](CCSC)NC(=O)[C@H](CO)NC(=O)[C@H](Cc4cnc[nH]4)NC(=O)[C@H](CCCCN)NC3=O)C(=O)N[C@@H](CCCNC(=N)N)C(=O)N[C@@H](CCCCN)C(=O)N[C@@H]([C@@H](C)O)C(=O)N2)NC(=O)[C@H](CCCNC(=N)N)NC(=O)[C@H](CO)NC(=O)[C@H](CCCCN)NC(=O)[C@@H]2CCCN2C(=O)[C@H]([C@@H](C)CC)NC(=O)[C@H]([C@@H](C)O)NC(=O)[C@H](CC(=O)O)NC1=O` are 0.475 nM, 0.357 nM and 0.191 nM.
In the same order, the values of `CC[C@H](C)[C@@H]1NC(=O)[C@@H](NC(=O)[C@H](CO)NC(=O)[C@@H](N)CCCNC(=N)N)CSSC[C@@H](C(=O)O)NC(=O)[C@H]([C@@H](C)O)NC(=O)CNC(=O)[C@@H]2CSSC[C@@H]3NC(=O)[C@H](CCC(=O)O)NC(=O)[C@H](Cc4ccccc4)NC(=O)[C@H](C)NC(=O)[C@H]([C@@H](C)O)NC(=O)[C@H](CSSC[C@H](NC(=O)[C@H](Cc4ccccc4)NC(=O)[C@H](CO)NC(=O)[C@H](CC(C)C)NC(=O)[C@H](CCCNC(=N)N)NC(=O)[C@H](Cc4ccc(O)cc4)NC(=O)[C@H](CCCCN)NC(=O)[C@H](CCSC)NC(=O)[C@H](CO)NC(=O)[C@H](Cc4cnc[nH]4)NC(=O)[C@H](CCCCN)NC3=O)C(=O)N[C@@H](CCCNC(=N)N)C(=O)N[C@@H](CCCCN)C(=O)N[C@@H]([C@@H](C)O)C(=O)N2)NC(=O)[C@H](CCCNC(=N)N)NC(=O)[C@H](CO)NC(=O)[C@H](CCCCN)NC(=O)[C@@H]2CCCN2C(=O)[C@H]([C@@H](C)CC)NC(=O)[C@H]([C@@H](C)O)NC(=O)[C@H](CC(=O)O)NC1=O` are 0.373 nM, 0.352 nM and 0.197 nM.
As to `CC[C@H](C)[C@@H]1NC(=O)[C@@H](NC(=O)[C@H](Cc2cccc3ccccc23)NC(=O)[C@@H](N)CCCNC(=N)N)CSSC[C@@H](C(=O)O)NC(=O)[C@H]([C@@H](C)O)NC(=O)CNC(=O)[C@@H]2CSSC[C@@H]3NC(=O)[C@H](CCC(N)=O)NC(=O)[C@H](Cc4ccccc4)NC(=O)[C@H](C)NC(=O)[C@H]([C@@H](C)O)NC(=O)[C@H](CSSC[C@H](NC(=O)[C@H](Cc4ccccc4)NC(=O)[C@H](CO)NC(=O)[C@H](CC(C)C)NC(=O)[C@H](CCCNC(=N)N)NC(=O)[C@H](Cc4ccc(O)cc4)NC(=O)[C@H](CCCCN)NC(=O)[C@H](CCSC)NC(=O)[C@H](CO)NC(=O)[C@H](Cc4cnc[nH]4)NC(=O)[C@H](CCCCN)NC3=O)C(=O)N[C@@H](CCCNC(=N)N)C(=O)N[C@@H](CCCCN)C(=O)N[C@@H]([C@@H](C)O)C(=O)N2)NC(=O)[C@H](CCCNC(=N)N)NC(=O)[C@H](CO)NC(=O)[C@H](CCCCN)NC(=O)[C@@H]2CCCN2C(=O)[C@H]([C@@H](C)CC)NC(=O)[C@H]([C@@H](C)O)NC(=O)[C@H](CC(=O)O)NC1=O`, the IC50 in assay [1] worked out at 0.258 nM; in assay [2], 0.223 nM; in assay [3] it was 0.257 nM.
In the same order, the values of `CC[C@H](C)[C@@H]1NC(=O)[C@@H](NC(=O)[C@H](CO)NC(=O)[C@@H](N)CCCNC(=N)N)CSSC[C@@H](C(=O)O)NC(=O)[C@H]([C@@H](C)O)NC(=O)CNC(=O)[C@@H]2CSSC[C@@H]3NC(=O)[C@H](CCC(N)=O)NC(=O)[C@H](Cc4ccccc4)NC(=O)[C@H](C)NC(=O)[C@H]([C@@H](C)O)NC(=O)[C@H](CSSC[C@H](NC(=O)[C@H](Cc4ccccc4)NC(=O)[C@H](CO)NC(=O)[C@H](CC(C)C)NC(=O)[C@H](CCCNC(=N)N)NC(=O)[C@H](Cc4ccc(O)cc4)NC(=O)[C@H](CCCCN)NC(=O)[C@H](CCSC)NC(=O)[C@H](CO)NC(=O)[C@H](Cc4cnc[nH]4)NC(=O)[C@H](CCCCN)NC3=O)C(=O)N[C@@H](CCCNC(=N)N)C(=O)N[C@@H](C)C(=O)N[C@@H]([C@@H](C)O)C(=O)N2)NC(=O)[C@H](CCCNC(=N)N)NC(=O)[C@H](CO)NC(=O)[C@H](CCCCN)NC(=O)[C@@H]2CCCN2C(=O)[C@H]([C@@H](C)CC)NC(=O)[C@H]([C@@H](C)O)NC(=O)[C@H](CC(=O)O)NC1=O` are 0.308 nM, 0.186 nM and 0.173 nM.
Taken in the same sequence, the figures for `CC[C@H](C)[C@@H]1NC(=O)[C@@H](NC(=O)[C@H](CO)NC(=O)[C@@H](N)CCCNC(=N)N)CSSC[C@@H](C(=O)O)NC(=O)[C@H]([C@@H](C)O)NC(=O)CNC(=O)[C@@H]2CSSC[C@@H]3NC(=O)[C@H](CCC(N)=O)NC(=O)[C@H](CCC(=O)O)NC(=O)[C@H](C)NC(=O)[C@H]([C@@H](C)O)NC(=O)[C@H](CSSC[C@H](NC(=O)[C@H](Cc4ccccc4)NC(=O)[C@H](CO)NC(=O)[C@H](CC(C)C)NC(=O)[C@H](CCCNC(=N)N)NC(=O)[C@H](Cc4ccc(O)cc4)NC(=O)[C@H](CCCCN)NC(=O)[C@H](CCSC)NC(=O)[C@H](CO)NC(=O)[C@H](C)NC(=O)[C@H](CCCCN)NC3=O)C(=O)N[C@@H](CCCNC(=N)N)C(=O)N[C@@H](CCCCN)C(=O)N[C@@H]([C@@H](C)O)C(=O)N2)NC(=O)[C@H](CCCNC(=N)N)NC(=O)[C@H](CO)NC(=O)[C@H](CCCCN)NC(=O)[C@@H]2CCCN2C(=O)[C@H]([C@@H](C)CC)NC(=O)[C@H]([C@@H](C)O)NC(=O)[C@H](CC(=O)O)NC1=O` (H-RSCIDTIPKSRCTAEQCKASMKYRLSFCRKTCGTC-OH; disulfide 3-35, 12-28, 17-32) were 0.575 nM, 0.312 nM and 0.267 nM.
Regarding `CC[C@H](C)[C@@H]1NC(=O)[C@@H](NC(=O)[C@H](CO)NC(=O)[C@@H](N)CCCNC(=N)N)CSSC[C@@H](C(=O)O)NC(=O)[C@H]([C@@H](C)O)NC(=O)CNC(=O)[C@@H]2CSSC[C@@H]3NC(=O)[C@H](CCC(N)=O)NC(=O)[C@H](Cc4ccccc4)NC(=O)[C@H](C)NC(=O)[C@H]([C@@H](C)O)NC(=O)[C@H](CSSC[C@H](NC(=O)[C@H](Cc4ccccc4)NC(=O)[C@H](CO)NC(=O)[C@H](CC(C)C)NC(=O)[C@H](CCCNC(=N)N)NC(=O)[C@H](Cc4ccc(O)cc4)NC(=O)[C@H](CCCCN)NC(=O)[C@H](CCSC)NC(=O)[C@H](CCCNC(=N)N)NC(=O)[C@H](Cc4cnc[nH]4)NC(=O)[C@H](CCCCN)NC3=O)C(=O)N[C@@H](CCCNC(=N)N)C(=O)N[C@@H](CCCCN)C(=O)N[C@@H]([C@@H](C)O)C(=O)N2)NC(=O)[C@H](CCCNC(=N)N)NC(=O)[C@H](CO)NC(=O)[C@H](CCCCN)NC(=O)[C@@H]2CCCN2C(=O)[C@H]([C@@H](C)CC)NC(=O)[C@H]([C@@H](C)O)NC(=O)[C@H](CC(=O)O)NC1=O`, the IC50 in assay [1] is 40.3 nM; in assay [2] it was 25.3 nM; in assay [3], above 3.33 nM.
